For the test, the target named is T1, Recombinant full length human OGA enzyme (Homo sapiens, UniProt O60502).
T1 construct: Recombinant full length human OGA enzyme was purchased from Origene; purchased Origene
T1 sequence (O60502 1-916): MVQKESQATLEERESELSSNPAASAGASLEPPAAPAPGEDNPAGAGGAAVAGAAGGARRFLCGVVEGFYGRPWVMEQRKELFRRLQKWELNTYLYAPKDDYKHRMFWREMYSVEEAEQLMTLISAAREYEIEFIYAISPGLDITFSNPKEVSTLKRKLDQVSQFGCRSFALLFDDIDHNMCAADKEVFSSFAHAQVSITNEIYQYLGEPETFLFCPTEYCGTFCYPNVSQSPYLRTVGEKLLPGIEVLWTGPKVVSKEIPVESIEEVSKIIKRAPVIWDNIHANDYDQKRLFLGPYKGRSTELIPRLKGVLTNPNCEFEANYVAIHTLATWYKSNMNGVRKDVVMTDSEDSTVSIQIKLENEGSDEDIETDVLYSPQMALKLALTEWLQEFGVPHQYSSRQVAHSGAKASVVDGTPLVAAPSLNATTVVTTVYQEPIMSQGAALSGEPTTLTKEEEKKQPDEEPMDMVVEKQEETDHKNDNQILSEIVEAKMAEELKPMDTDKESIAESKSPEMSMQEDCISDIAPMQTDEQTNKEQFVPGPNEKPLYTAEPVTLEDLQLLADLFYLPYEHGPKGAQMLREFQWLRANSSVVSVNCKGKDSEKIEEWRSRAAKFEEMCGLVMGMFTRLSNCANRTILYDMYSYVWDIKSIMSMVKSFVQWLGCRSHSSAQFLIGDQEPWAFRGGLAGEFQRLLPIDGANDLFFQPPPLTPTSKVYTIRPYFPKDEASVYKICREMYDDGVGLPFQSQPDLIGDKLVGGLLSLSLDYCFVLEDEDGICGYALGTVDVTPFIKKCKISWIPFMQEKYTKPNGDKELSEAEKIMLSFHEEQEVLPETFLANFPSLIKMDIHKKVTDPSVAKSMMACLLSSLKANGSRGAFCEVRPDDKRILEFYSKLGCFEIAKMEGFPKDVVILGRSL
Kind of test: OGA Enzyme Inhibition Biochemical Assay. The note with it: 1 nM OGA, 100 μM 4-MUGlcNAc (Km), pH 6.4, 90 minutes at room temperature; 10-point dose-response starting from 20 μM. The method, then:
OGA Enzyme Inhibition Biochemical Assay
Recombinant full length human OGA enzyme was purchased from Origene. 4-MUGlCNAc substrate was purchased from Sigma. All other reagents were purchased from Sigma or Fisher. Assay buffer consists of the McIlvaine buffer system, pH 6.4 (0.2M Na2HPO4 mixed with 0.1M citric acid) and 0.01% BSA. Reactions consist of 1 nM OGA, 100 μM 4-MUGlcNAc (Km), and compound in a final volume of 10 μl. Reactions were incubated for 90 minutes at room temperature and quenched with 40 μl of 3M glycine, pH 10 and read on a Perkin Elmer Envision plate reader (Ex: 355 nm/Em: 460 nm). Compounds were tested with a 10-point dose-response starting from 20 μM with a 4-fold dilution. Data was fit using GraphPad Prism using a 4-paramter fit with variable slope.
The term IC50 denotes the concentration needed to halve the response being measured. For the compound `COc1cc(C[C@@H]2CN(Cc3cnc(NC(C)=O)s3)CCO2)ccn1` [Example 1-3, (R)—N-(5-((2-((2-methoxypyridin-4-yl)methyl)morpholino)methyl)thiazol-2-yl)acetamide], the IC50 was 43 nM. For `COc1cc(C[C@H]2CN(Cc3cnc(NC(C)=O)s3)CCO2)ccn1` [Example 1-4, (S)—N-(5-((2-((2-methoxypyridin-4-yl)methyl)morpholino)methyl)thiazol-2-yl)acetamide] the value was 11000 nM; for `COc1nccc(C[C@@H]2CN(Cc3cnc(NC(C)=O)s3)CCO2)c1C` [Example 1-5, (R)—N-(5-((2-((2-methoxy-3-methylpyridin-4-yl)methyl)morpholino)methyl)thiazol-2-yl)acetamide], 61 nM. For `COc1cc(C[C@@H]2CN(Cc3cnc(NC(C)=O)s3)CCO2)ccc1F` [Example 1-6, (R)—N-(5-((2-(4-fluoro-3-methoxybenzyl)morpholino)methyl)thiazol-2-yl)acetamide] the value was 100 nM; for `COc1nccc(C[C@@H]2CN(Cc3cnc(NC(C)=O)s3)CCO2)n1` [Example 1-7, (R)—N-(5-((2-((2-methoxypyrimidin-4-yl)methyl)morpholino)methyl)thiazol-2-yl)acetamide], 110 nM. For `COc1cc(C[C@@H]2CN(Cc3cnc(NC(C)=O)s3)CCO2)ncn1` [Example 1-8, (R)—N-(5-((2-((6-methoxypyrimidin-4-yl)methyl)morpholino)methyl)thiazol-2-yl)acetamide], the half-inhibitory concentration (IC50) amounted to 130 nM.

With `CC(=O)Nc1ncc(CN2CCO[C@H](Cc3ccnc(C(F)(F)F)n3)C2)s1` [Example 1-9], the 50% inhibitory concentration (IC50) was determined as 1500 nM. Then `CC(=O)Nc1ncc(CN2CCO[C@H](Cc3ccnc(OCC(F)(F)F)c3)C2)s1` [Example 1-10], with 160 nM; and `CCOc1cc(C[C@@H]2CN(Cc3cnc(NC(C)=O)s3)CCO2)ccn1` [Example 1-11, (R)—N-(5-((2-((2-ethoxypyridin-4-yl)methyl)morpholino)methyl)thiazol-2-yl)acetamide], with 130 nM. Then `CC(=O)Nc1ncc(CN2CCO[C@H](Cc3ccnc(OC(C)C)c3)C2)s1` [Example 1-12, (R)—N-(5-((2-((2-isopropoxypyridin-4-yl)methyl)morpholino)methyl)thiazol-2-yl)acetamide], with 270 nM; and `CC(=O)Nc1ncc(CN2CCO[C@H](Cc3ccnc(C(F)F)c3)C2)s1` [Example 1-13], with 260 nM; and `CC(=O)Nc1ncc(CN2CCO[C@H](Cc3ccnc(C)n3)C2)s1` [Example 1-14, (R)—N-(5-((2-((2-methylpyrimidin-4-yl)methyl)morpholino)methyl)thiazol-2-yl)acetamide], with 180 nM.

With `COc1nccc(C[C@@H]2CN(Cc3cnc(NC(C)=O)s3)CCO2)c1F` [Example 1-15, (R)—N-(5-((2-((3-fluoro-2-methoxypyridin-4-yl)methyl)morpholino)methyl)thiazol-2-yl)acetamide], the 50% inhibitory concentration (IC50) was 56 nM. With `CC(=O)Nc1ncc(CN2CCO[C@H](Cc3ccc(C)cn3)C2)s1` [Example 1-16, (R)—N-(5-((2-((5-methylpyridin-2-yl)methyl)morpholino)methyl)thiazol-2-yl)acetamide], the IC50 was found to be 160 nM. Then `CC(=O)Nc1ncc(CN2CCO[C@H](Cc3ccnc(OC(F)F)c3)C2)s1` [Example 1-17, (R)—N-(5-((2-((2-(difluoromethoxy)pyridin-4-yl)methyl)morpholino)methyl)thiazol-2-yl)acetamide], with 136 nM; and `CC(=O)Nc1ncc(CN2CCO[C@H](Cc3cc(C)c(F)cn3)C2)s1` [Example 1-18, (R)—N-(5-((2-((5-fluoro-4-methylpyridin-2-yl)methyl)morpholino)methyl)thiazol-2-yl)acetamide], with 200 nM.

With `CC(=O)Nc1ncc(CN2CCO[C@H](Cc3ccc(C)nc3)C2)s1` [Example 1-19, (R)—N-(5-((2-((6-methylpyridin-3-yl)methyl)morpholino)methyl)thiazol-2-yl)acetamide], the IC50 came to 110 nM.

In the case of `CC(=O)Nc1ncc(CN2CCO[C@H](Cc3ccnc(C)c3)C2)s1` [Example 1-20, (R)—N-(5-((2-((2-methylpyridin-4-yl)methyl)morpholino)methyl)thiazol-2-yl)acetamide], the IC50 was 84 nM.

Turning to `CC(=O)Nc1ncc(CN2CCO[C@H](Cc3cc(C)nc(C)c3)C2)s1` [Example 1-21, (R)—N-(5-((2-((2,6-dimethylpyridin-4-yl)methyl)morpholino)methyl)thiazol-2-yl)acetamide], the IC50 stood at 38 nM. For `CC(=O)Nc1ncc(CN2C[C@@H](Cc3ncc(F)cn3)OC[C@@H]2C)s1` [Example 1-26] the value was 5.1 nM.

For the compound `CC(=O)Nc1ncc(CN2C[C@@H](Cc3ncc(F)cn3)OC[C@H]2C)s1` [Example 1-27], the concentration for half-maximal inhibition (IC50) is 6600 nM. For `CC(=O)Nc1ncc(CN2C[C@H](Cc3ncc(F)cn3)OC[C@@H]2C)s1` [Example 1-28, N-(5-(((2S,5S)-2-((5-fluoropyrimidin-2-yl)methyl)-5-methylmorpholino)methyl)thiazol-2-yl)acetamide] the value was 150 nM.

On to `CC(=O)Nc1ncc(CN2C[C@H](Cc3ncc(F)cn3)OC[C@H]2C)s1` [Example 1-29, N-(5-(((2S,5R)-2-((5-fluoropyrimidin-2-yl)methyl)-5-methylmorpholino)methyl)thiazol-2-yl)acetamide], for which the 50% inhibitory concentration (IC50) was determined as 12000 nM. Then `COc1cc(C[C@@H]2CN(Cc3cnc(NC(C)=O)s3)[C@@H](C)CO2)ccn1` [Example 1-30, N-(5-(((2R,5S)-2-((2-methoxypyridin-4-yl)methyl)-5-methylmorpholino)methyl)thiazol-2-yl)acetamide], with 17000 nM. As for `CC(=O)Nc1ncc(CN2C[C@@H](Cc3cc(C)nc(C)c3)OC[C@@H]2C)s1` [Example 1-31], the IC50 stood at 9 nM.

For `CC(=O)Nc1ncc(CN2C[C@@H](Cc3ccnc(C)c3)OC[C@@H]2C)s1` [Example 1-32, N-(5-(((2R,5S)-5-methyl-2-((2-methylpyridin-4-yl)methyl)morpholino)methyl)thiazol-2-yl)acetamide], the IC50 is 1.4 nM. `CC(=O)Nc1ncc(CN2C[C@@H](Cc3ccc(C)nc3)OC[C@@H]2C)s1` [Example 1-33, N-(5-(((2R,5S)-5-methyl-2-((6-methylpyridin-3-yl)methyl)morpholino)methyl)thiazol-2-yl)acetamide]: the IC50 was determined as 31 nM.

As for `CC(=O)Nc1nc(F)c(CN2CCO[C@H](Cc3ccc(C)nc3)C2)s1` [Example 1-48, (R)—N-(4-fluoro-5-((2-((6-methylpyridin-3-yl)methyl)morpholino)methyl)thiazol-2-yl)acetamide], the 50% inhibitory concentration (IC50) came out at 140 nM. For `CC(=O)Nc1nc(F)c(CN2C[C@@H](Cc3ccc(C)nc3)OC[C@@H]2C)s1` [Example 1-49, N-(4-fluoro-5-(((2R,5S)-5-methyl-2-((6-methylpyridin-3 yl)methyl)morpholino)methyl)thiazol-2-yl)acetamide], the 50% inhibitory concentration (IC50) amounted to 170 nM. `CC(=O)Nc1ncc(CN2C[C@@H](Cc3ccnc(C)c3)NC[C@@H]2C)s1` [Example 2-1, N-(5-(((2S,5R)-2-methyl-5-((2-methylpyridin-4-yl)methyl)piperazin-1-yl)methyl)thiazol-2-yl)acetamide]: the IC50 is 7.4 nM. On to `CC(=O)Nc1ncc(CN2C[C@@H](Cc3ccnc(C)c3)N(C)C[C@@H]2C)s1` [Example 2-2, N-(5-(((2S,5R)-2,4-dimethyl-5-((2-methylpyridin-4-yl)methyl)piperazin-1-yl)methyl)thiazol-2-yl)acetamide], for which the IC50 stood at 9.8 nM.

With `CCN1C[C@H](C)N(Cc2cnc(NC(C)=O)s2)C[C@H]1Cc1ccnc(C)c1` [Example 2-3, N-(5-(((2S,5R)-4-ethyl-2-methyl-5-((2-methylpyridin-4-yl)methyl)piperazin-1-yl)methyl)thiazol-2-yl)acetamide], the concentration for half-maximal inhibition (IC50) was determined as 26 nM. Then `CC(=O)Nc1ncc(CN2C[C@@H](Cc3ccnc(C)c3)N(C(C)=O)C[C@@H]2C)s1` [Example 2-4, N-(5-(((2S,5R)-4-acetyl-2-methyl-5-((2-methylpyridin-4-yl)methyl)piperazin-1-yl)methyl)thiazol-2-yl)acetamide], with 7500 nM.

(Values after patent US12319679B2, “Morpholinyl, piperazinyl, oxazepanyl and diazepanyl O-glycoprotein-2-acetamido-2-deoxy-3-d-glucopyranosidase inhibitors” (BIOGEN MA INC., priority 2018, dated 2025).)
